According to a melting point compilation (Tetko et al.; mined from patent text by program, amines drawn as free bases though some values may be those of a salt):

Row | SMILES | melting point [°C]
1 | CC1C(=S)Nc2c(F)cc(F)cc21 (configuration not stated) | 151 to 152
2 | CCC12CCC3=C(CCc4cc(O)ccc43)C1=CCC2=O (configuration not stated) | 153 to 156
3 | O=C(Nc1ccc(C(F)(F)F)cc1)c1cccc(Oc2cccc(C(F)(F)F)c2)n1 | 130 to 132
4 | CCOC(=O)c1[nH]c2c(Cl)ccc(Cl)c2c1C | 107 to 108
5 | CC1(C)CC(CS(=O)(=O)NCC(=O)O)c2cc(OCc3ccccc3)ccc2O1 (configuration not stated) | 131
6 | COc1ccccc1N1CCN(CC2CCc3ccccc3C2O)CC1 (configuration not stated) | 110 to 113
7 | O=C(CCCN1CCCC(c2cccc(O)c2)C1)c1ccc(F)cc1 (configuration not stated) | 77 to 78
8 | COC(=O)c1ncn2c3cccc(Cl)c3c(=O)n(C)c12 | 210 to 220
9 | Cn1ccc(-c2ccc(F)cc2)c1-c1ccc(F)cc1 | 129 to 130
10 | NS(=O)(=O)c1cc2sc(C=O)cc2s1 | 203 to 204
11 | Nc1cc(C=C2c3ccccc3CCc3ccccc32)ccc1O | 159
12 | COc1ccc(CSc2nnc(-c3ccc4nccn4c3)o2)cc1 | 155 to 156
13 | CCC(C)c1ccc(-n2c(-c3cc(C)c(OCCO)c(C)c3)nc3cc(F)ccc3c2=O)cc1 (configuration not stated) | 53.9 to 54.4
14 | COC(=S)CCc1cc(C(C)(C)C)cc(C(C)(C)C)c1O | 55 to 55.5
15 | CSc1sc(-c2nnco2)c2c1C(=O)CC(C)(C)C2 | 185 to 189
16 | CSC1=NC(C)(C)SC1=NO | 168 to 171
17 | COc1ccc(Cl)cc1C1CC(=O)c2c(C)ccnc2C1 (configuration not stated) | 131 to 133
18 | [O-][N+]1=C(c2ccccc2Cl)c2cc(Cl)ccc2C=CC1 | 196 to 197
19 | CN(CCN1CCOCC1)Cc1ccc(COc2cccc3c2CN(C2CCC(=O)NC2=O)C3=O)cc1 (configuration not stated) | 193 to 195
20 | COC(=O)c1ccc2ccc(C#N)cc2c1 | 136

Row | SMILES | melting point [°C]
21 | CCCCCCCCc1c(C)nc2cc(C)nn2c1N | 169
22 | CNC(=O)c1ccc(-c2ccc(NC(=O)NCc3cccnc3)cc2)nc1NCCN(C)C | 163 to 165
23 | O=C(O)c1cccc(-c2nc(-c3ccc(F)cc3F)cs2)c1 | 255 to 256
24 | FC(F)c1nc2ccccc2n1-c1nc(Nc2cnccn2)nc(N2CCOCC2)n1 | 271 to 274
25 | Fc1nc(F)c(F)c(F)n1 | 104
26 | C=CC[C@H](C(N)=O)[C@@H](CC(C)C)C(=O)NC1N=C(c2cccc(OC)c2)c2ccccc2N(C)C1=O (some centres not stated) | 225 to 230
27 | CCC(=O)N(C(=O)CC)c1c(C#N)cnn1-c1ccc(Cl)c(Cl)c1Cl | 133 to 134
28 | Cc1cccc(C)c1NC(=O)CCN1CCN(CCCC(c2ccc(F)cc2)c2ccc(F)cc2)C(C(N)=O)C1 (configuration not stated) | 121
29 | COCCOC[C@H](CC1(C(=O)O)CCCC1)C(=O)OC(C)(C)C | 86 to 87
30 | COc1cccc(OC2COc3ccc(OCc4cc(OC)ccn4)cc3C2O)c1 (configuration not stated) | 165 to 166
31 | COc1cc(C(=O)c2csc(-c3ccc(N)cc3)n2)cc(OC)c1OC | 166 to 169
32 | COC(=O)c1ccccc1NS(=O)(=O)c1ccc(C(=O)NCCc2ccccc2)cc1 | 167 to 168
33 | CCn1cc(CN(C(=O)C2CCc3ccccc32)c2ccc(C(C)C)cc2)cn1 (configuration not stated) | 83 to 84
34 | Cc1ncccc1COc1ccc(Cn2cc(CCC(=O)O)c(-c3ccccc3)c2)cc1 | 158 to 159
35 | CC(=O)C(=Cc1cccc([N+](=O)[O-])c1)C(=O)OCCBr | 94.5 to 95.5
36 | COCC(COC)Nc1c(C)nn2c(-c3ccc(Cl)cc3Cl)cccc12 | 86.9 to 90
37 | CN(C)C(=O)c1cc2n(c1)CCc1ccccc1C2=O | 148 to 150
38 | COC(=O)Nc1nc2cnc3cccnc3c2n1CC(C)C | 195 to 197
39 | CC(=O)NC[C@H]1CN(c2ccc(N3CCC(O)(CNC4CC4)CC3)c(F)c2)C(=O)O1 | 160 to 162
40 | CCCC1CCCN(C(=O)C2Cc3ccccc3N2c2ccc(=O)n(C)n2)C1 (configuration not stated) | 106 to 110

Row | SMILES | melting point [°C]
41 | Oc1ccc(-c2cc3ccccc3[nH]2)cc1 | 224 to 229
42 | O=C(NCc1ccco1)c1cc2ccnc(Cl)c2[nH]1 | 205 to 209
43 | Cc1cc(CCCCCSc2ccc(C3=NCCO3)cc2)on1 | 89 to 91
44 | Cc1nc2c(S(N)(=O)=O)cccc2s1 | 236 to 239
45 | COC(=O)NC(C)c1cccc(-c2ccc(OC)cc2)c1 (configuration not stated) | 117 to 119
46 | Cc1nc(N)c2nc(C)n(CCCNC(=O)N3CCOCC3)c2c1C | 129 to 130
47 | Brc1ccc(-c2cn([C@H]3CN4CCC3CC4)nn2)cc1 | 158
48 | O=C(O)C1CCc2cccc3c(=O)[nH]c(=O)n1c23 (configuration not stated) | > 300
49 | CC(C)c1ccc(-n2c(CC(=O)O)c(C(=O)O)c3cc(Oc4ccc(C(F)(F)F)cc4)ccc32)cc1 | 250 to 252
50 | CNC(=O)C(=NOCF)c1ccccc1Oc1ncnc(Oc2ccccc2Cl)c1F | 128 to 129
51 | C#CCOc1cc(-c2cc(C)c(C(F)(F)F)n(C)c2=O)c(F)cc1Cl | 107 to 108
52 | CN(CC(=O)C(CCCCN)NC(=O)c1ccccc1)C(=O)N1CCCC1C(=O)O (configuration not stated) | 130 to 133
53 | CCCN(CC(O)C(Cc1ccccc1)NC(=O)C(C)CS(C)(=O)=O)S(=O)(=O)c1ccc(OC)cc1 (configuration not stated) | 88 to 92
54 | CCOC(=O)c1cn2c(ccc3cc(OC)ccc32)n1 | 119 to 121
55 | CCOc1cc(O)cc2c1C(=O)N(CSc1ccccc1)S2(=O)=O | 204 to 205
56 | NC(=O)N1CCC(Br)C1=O (configuration not stated) | 128 to 129
57 | CC(=O)N[C@H]1CC[C@H](ON2C(=O)c3ccccc3C2=O)CC1 | 210 to 213
58 | Cc1nn(-c2c(Cl)cc(C(F)(F)F)cc2Cl)c(C)c1C=NC(C#N)=C(N)C#N | 237 to 240
59 | CN1C(=O)C(c2ccc(OC(F)F)cc2)(c2cccc(CCCCO)c2)N=C1N (configuration not stated) | 63 to 66

Other lines, results leading:

Row | melting point [°C] | SMILES
60 | 159 to 161 | Cn1nc(-c2ccc(S(=O)(=O)N3CCn4c(c(C(N)=O)c(Cl)c4-c4ccccc4)C3)s2)cc1C(F)(F)F
61 | 298 to 300 | O=C(Nc1ccc(-c2c[nH]c(=O)cn2)cc1)c1ccc([N+](=O)[O-])cc1
62 | 81 to 83 | CCCCOc1ccc2c(c1)CCC(C(=O)OC)C2O (configuration not stated)
63 | 67 to 69 | CCCCCCCCCCCCCCCCCCOc1cc(OCCCBr)cc(N(CC(=O)OC)CC(=O)OC)c1
64 | 89 to 92 | O=C(C=Cc1ccc(F)cc1)c1ccc(C(F)(F)F)cc1
65 | 218 | COC(=O)C1=C(N)NC(C)=C([N+](=O)[O-])C1c1ccccc1S(=O)(=O)CCCCCl (configuration not stated)
66 | 176 to 178 | O=C(Cc1cc2ccccc2[nH]1)Nc1ccc(-n2nc(C(F)(F)F)cc2C(F)(F)F)cc1
67 | 162 to 165 | O=C(O)C1=Cc2cc(C(F)(F)C(F)(F)F)ccc2OC1C(F)(F)F (configuration not stated)
68 | 129 to 131 | COc1ccc(COc2cc(C)nc3c(O)cccc23)cc1OC
69 | 115 to 121 | O=c1oc(-c2cccc(C(F)(F)F)c2)nc2cccc(F)c12
70 | 229 to 231 | Nc1nc2c(c(Nc3ccc(C(F)(F)F)cc3)n1)-c1ccccc1C2
71 | 65 to 68 | CCCc1nc2cnc3cc(C)ccc3c2o1
72 | 205 | COc1cc(-c2cccc(Cl)c2)c2cc(C(O)c3cncn3C)ccc2n1 (configuration not stated)
73 | 246 to 248 | O=c1[nH]c2ncc(-c3cn[nH]c3)nc2n1CC1CCCCC1
74 | 84 to 85 | COC(=O)Cc1cc(Cl)ccc1O
75 | 124 to 125 | CCCCCS(=O)(=O)NC(=O)/C=C/c1ccc(OCCCOCC2CC2)cc1Oc1ncc(C(F)(F)F)cc1Cl
76 | 125 | CCC(=O)C1=C(O)CC(c2ccc3ccccc3c2)CC1=O (configuration not stated)
77 | 125 to 132 | Cc1ccc(F)cc1C(=O)Nc1ccc(C(=O)N2CCC=Cc3sccc32)c(Cl)c1
78 | 227 to 229 | COc1ccc(C(C)C)cc1-c1cc(-c2nnnn2C2CCCN(C(=O)OC(C)(C)C)C2)c(O)cc1O (configuration not stated)
79 | 181 to 183 | COC(=O)c1ccc(C)c(C2=NC(C)(C(C)C)C(=O)N2)c1Cl (configuration not stated)
80 | 148 to 150 | Fc1cccc(F)c1C1=NC(c2ccc(OCc3ccc4ccccc4c3)cc2)CO1 (configuration not stated)
81 | 115 to 116 | CCOC(=O)CC(=O)c1cc(F)c(S(=O)CC)nc1Nc1ccc(F)cc1F (configuration not stated)

Row | melting point [°C] | SMILES
82 | 84 to 85 | CCCS(=O)c1cc(O)ccc1C (configuration not stated)
83 | 171 to 172 | CCOP(=O)(Cc1ccc(C(=O)Nc2ccccc2C(=O)O)cc1)OCC
84 | 171 to 173 | NCCN1C(=O)CN(c2ccc3c(c2)OCO3)C1=O
85 | 56 to 58 | CC(C)(C)[Si](C)(C)OC1CC(=O)c2cc(F)ccc21 (configuration not stated)
86 | 90 | CCCCCCCCOc1ccc(C(=O)NN)cc1
87 | 163 to 164 | CNC(=O)c1sc2cnccc2c1Oc1ccc(COC)cc1
88 | 102 to 104 | CCCCCCCCCCOc1ccc(-c2ccc(C(C)=O)cc2)cc1
89 | 144 to 147 | Cc1cc(N(C)C)cc(C)c1NC(NCCCCCCCc1ccc(C(C)(C)C)cc1)=C1C(=O)COC1=O
90 | 158 to 160 | CCCC(C(=O)OCC)c1ccc(N2Cc3ccccc3C2=N)cc1 (configuration not stated)
91 | 306 to 307 | CS(=O)(=O)Nc1ccc(Cc2n[nH]c3c2c(=O)n(-c2ccccc2)c2ncccc32)cc1
92 | 91 to 92 | O=C1Cc2cc(Cl)ccc2Oc2ccc(F)cc21
93 | 135 to 137 | NCCC(=O)N(N)S(=O)(=O)c1ccccc1
94 | 163 to 166 | CN(C)C/C=C/C(=O)Nc1cc2c(Nc3ccc(F)c(Br)c3)ncnc2cn1
95 | 73 to 74 | Cc1cc(CC(=O)c2ccccc2)on1
96 | 220 | CCCCc1nc(SC)c(C(=O)O)n1Cc1ccc(-c2ccccc2C(=O)O)cc1
97 | 181 to 182 | CN1CCC(C2(O)c3cc(Cl)ccc3CC2(C)C)CC1 (configuration not stated)
98 | 112 | CC(=O)c1ccc(Br)cn1
99 | < 50 | CCSN(C)C(=O)Nc1ccc(Br)cc1
100 | 198 to 199 | CC(C)CC(=O)Nc1nc(-c2ccccc2)c(-c2ccc(=O)n(C(C)C)n2)s1
101 | 65 to 70 | COc1cc2c(cc1Nc1ncc(Cl)c(NC3(C(=O)OC(C)C)CCCC3)n1)CCN(CC(=O)N(C)C)CC2
102 | 174 to 177 | O=C1N(Cc2ccc(C(F)(F)F)o2)c2ccccc2C12COc1cc3c(cc12)OCC3 (configuration not stated)
